Measurements reported in US20250325562A1, “Intravenous Ganaxolone Formulations and Methods of Use in Treating Status Epilepticus and Other Seizure Disorders” (MARINUS PHARMACEUTICALS, INC., priority 2015, published 2025).

Tested on: pilocarpine induced status epilepticus (SE)
Assay: Pilocarpine-induced status epilepticus in rats, cortical EEG power
Format: in vivo, Male Sprague-Dawley rats
Parameters: key to Treatment effect on EEG power vs vehicle, significance: * P < 0.05; ** P < 0.01; *** P < 0.001; **** P < 0.0001; ns = not significant
Conditions: 12 mg/kg IV
Procedure: This study was designed to determine the ability of a CAPTISOL-ganaxolone (GNX) formulation administered intravenously (IV) at 12 and 15 mg/kg to inhibit pilocarpine induced status epilepticus (SE). Allopregnanolone (Allo) (15 mg/kg; IV) was also evaluated for comparison. In this study, test drugs were administered either 15 or 60 minutes after onset of SE and compared to vehicle (30% Captisol).
Cortical EEG activity was recorded in rats before and after administration of pilocarpine to induce SE. Animals were pre-treated with LiCl to enhance and improve reliability of seizure induction and scopolamine to reduce peripheral cholinergic side effects of pilocarpine. EEG activity was recorded for 5 h after SE onset, and anticonvulsant activity was assessed by determining changes in EEG power over frequency ranges from 0.3 to 96 Hz.
Male Sprague-Dawley rats were used for the studies. Rats were surgically implanted with EEG electrodes and jugular vein catheters. The mean weight at the time of recording was 321+3 g (269-351 g).
EEG electrodes were surgically implanted in anesthetized rats. Animals were also treated with an anti-inflammatory anaelgesic (RIMADYL, (carprofen)) prior to surgery and a subcutaneous local anesthetic. Stainless steel screw electrodes chronically were implanted in the skull (0-80×¼″, Plastics-One, Roanoke, VA) such that the ends of the screws were flush with the inner skull surface. One electrode was located 3.0 mm anterior to bregma and 2 mm to the left of midline, and the second 4.0 mm posterior to bregma and 2.5 mm to the right of midline. The skull surface around the electrodes was sealed with super glue and dental acrylic, and the EEG electrode lead wires were inserted into a plastic pedestal mounted on the skull using dental acrylic. Wound edges were treated with triple antibiotic cream (bacitracin zinc, neomycin sulfate, polymyxin B sulfate; Walgreens). Following surgery, animals were administered antibiotic (ampicillin, 50 mg/kg IP at 0.4 mL/kg) and also received a chewable dose (˜10 mg) of Rimadyl following surgery. The animals were allowed to recover from EEG surgery for 1 week.
Rats were implanted with jugular-vein catheters (JVC) one week following EEG surgery. Rats were administered an anti-inflammatory/analgesic and then anesthetized and placed in a supine position. An incision was made in the skin on the right ventrolateral aspect of the neck to expose the external jugular vein which was then dissected free of surrounding fascia. A ligature was tied around the vein anteriorly to occlude blood flow returning to the heart. A second ligature was loosely tied around the vein posteriorly to create tension on the vessel during venotomy and catheter insertion. After incising the vein, a PE catheter (3Fr) was inserted into the vein and advanced approximately 30 mm towards the heart, positioning the tip at the junction of the precava and right atrium. After confirming patency of the catheter by blood withdrawal, the posterior ligature was tied off, and the catheter flushed with a “heparin-lock” solution (5 units heparin/ml saline) and plugged with a sterilized stainless steel pin. The catheter was then exteriorized by tunneling through the subcutaneous tissue to exit posterior to the head between the shoulder blades. Lastly, after suturing the catheter to the skin, all wounds were closed using sutures or wound clips. Immediately following surgery, the animals were awakened to assess catheter patency. Animals also received a chewable dose (˜10 mg) of Rimadyl following surgery to minimize pain and inflammation.
Animals were allowed a 1-week recovery time following JVC surgery. Jugular vein catheters were flushed daily with a 0.1 mL of heparin solution (5 units/mL) to maintain patency. On the day of surgery, the flushing solution contained ampicillin sulbactam (50 mg/kg). […]

`CC(=O)[C@H]1CC[C@H]2[C@@H]3CC[C@H]4C[C@](C)(O)CC[C@]4(C)[C@H]3CC[C@]12C` [Ganaxolone, 3α-hydroxy, 3β-methyl-5α-pregnan-20-one] was tested, and the “Treatment effect on EEG power vs vehicle, significance” value (15 min post SE onset, 0-5 Hz, 0-15 min. post drug) was “**** (**** P < 0.0001)”, the “Treatment effect on EEG power vs vehicle, significance” value (15 min post SE onset, 0-5 Hz, 1-2 hrs post drug) was “**** (**** P < 0.0001)” and the “Treatment effect on EEG power vs vehicle, significance” value (15 min post SE onset, 0-5 Hz, 2-3 hrs post drug) was “*** (*** P < 0.001)”. For the same molecule, the “Treatment effect on EEG power vs vehicle, significance” value (15 min post SE onset, 0-5 Hz, 3-5 hrs post drug) was “** (** P < 0.01)”, the “Treatment effect on EEG power vs vehicle, significance” value (15 min post SE onset, 0-5 Hz, 15-30 min post drug) was “**** (**** P < 0.0001)” and the “Treatment effect on EEG power vs vehicle, significance” value (15 min post SE onset, 0-5 Hz, 30-60 min post drug) was “**** (**** P < 0.0001)”. For the same molecule, the “Treatment effect on EEG power vs vehicle, significance” value (15 min post SE onset, 5-10 Hz, 0-15 min. post drug) was “**** (**** P < 0.0001)”, the “Treatment effect on EEG power vs vehicle, significance” value (15 min post SE onset, 5-10 Hz, 1-2 hrs post drug) was “** (** P < 0.01)” and the “Treatment effect on EEG power vs vehicle, significance” value (15 min post SE onset, 5-10 Hz, 2-3 hrs post drug) was “* (* P < 0.05)”. The “Treatment effect on EEG power vs vehicle, significance” value (15 min post SE onset, 5-10 Hz, 3-5 hrs post drug) was “ns”, the “Treatment effect on EEG power vs vehicle, significance” value (15 min post SE onset, 5-10 Hz, 15-30 min post drug) was “**** (**** P < 0.0001)” and the “Treatment effect on EEG power vs vehicle, significance” value (15 min post SE onset, 5-10 Hz, 30-60 min post drug) was “*** (*** P < 0.001)”. The “Treatment effect on EEG power vs vehicle, significance” value (15 min post SE onset, 10-30 Hz, 0-15 min. post drug) was “*** (*** P < 0.001)”, the “Treatment effect on EEG power vs vehicle, significance” value (15 min post SE onset, 10-30 Hz, 1-2 hrs post drug) was “* (* P < 0.05)” and the “Treatment effect on EEG power vs vehicle, significance” value (15 min post SE onset, 10-30 Hz, 2-3 hrs post drug) was “ns”. The “Treatment effect on EEG power vs vehicle, significance” value (15 min post SE onset, 10-30 Hz, 3-5 hrs post drug) was “ns”, the “Treatment effect on EEG power vs vehicle, significance” value (15 min post SE onset, 10-30 Hz, 15-30 min post drug) was “**** (**** P < 0.0001)” and the “Treatment effect on EEG power vs vehicle, significance” value (15 min post SE onset, 10-30 Hz, 30-60 min post drug) was “** (** P < 0.01)”. The “Treatment effect on EEG power vs vehicle, significance” value (15 min post SE onset, 30-50 Hz, 0-15 min. post drug) was “*** (*** P < 0.001)”, the “Treatment effect on EEG power vs vehicle, significance” value (15 min post SE onset, 30-50 Hz, 1-2 hrs post drug) was “* (* P < 0.05)” and the “Treatment effect on EEG power vs vehicle, significance” value (15 min post SE onset, 30-50 Hz, 2-3 hrs post drug) was “ns”. The “Treatment effect on EEG power vs vehicle, significance” value (15 min post SE onset, 30-50 Hz, 3-5 hrs post drug) was “ns”, the “Treatment effect on EEG power vs vehicle, significance” value (15 min post SE onset, 30-50 Hz, 15-30 min post drug) was “*** (*** P < 0.001)” and the “Treatment effect on EEG power vs vehicle, significance” value (15 min post SE onset, 30-50 Hz, 30-60 min post drug) was “** (** P < 0.01)”. The “Treatment effect on EEG power vs vehicle, significance” value (15 min post SE onset, 50-70 Hz, 0-15 min. post drug) was “** (** P < 0.01)”, the “Treatment effect on EEG power vs vehicle, significance” value (15 min post SE onset, 50-70 Hz, 1-2 hrs post drug) was “** (** P < 0.01)” and the “Treatment effect on EEG power vs vehicle, significance” value (15 min post SE onset, 50-70 Hz, 2-3 hrs post drug) was “ns”. The “Treatment effect on EEG power vs vehicle, significance” value (15 min post SE onset, 50-70 Hz, 3-5 hrs post drug) was “ns”, the “Treatment effect on EEG power vs vehicle, significance” value (15 min post SE onset, 50-70 Hz, 15-30 min post drug) was “** (** P < 0.01)” and the “Treatment effect on EEG power vs vehicle, significance” value (15 min post SE onset, 50-70 Hz, 30-60 min post drug) was “* (* P < 0.05)”. For the same molecule, the “Treatment effect on EEG power vs vehicle, significance” value (15 min post SE onset, 70-96 Hz, 0-15 min. post drug) was “** (** P < 0.01)”, the “Treatment effect on EEG power vs vehicle, significance” value (15 min post SE onset, 70-96 Hz, 1-2 hrs post drug) was “** (** P < 0.01)” and the “Treatment effect on EEG power vs vehicle, significance” value (15 min post SE onset, 70-96 Hz, 2-3 hrs post drug) was “ns”. The “Treatment effect on EEG power vs vehicle, significance” value (15 min post SE onset, 70-96 Hz, 3-5 hrs post drug) was “ns”, the “Treatment effect on EEG power vs vehicle, significance” value (15 min post SE onset, 70-96 Hz, 15-30 min post drug) was “** (** P < 0.01)” and the “Treatment effect on EEG power vs vehicle, significance” value (15 min post SE onset, 70-96 Hz, 30-60 min post drug) was “* (* P < 0.05)”. The “Treatment effect on EEG power vs vehicle, significance” value (60 min post SE onset, 0-5 Hz, 0-15 min. post drug) was “*** (*** P < 0.001)”, the “Treatment effect on EEG power vs vehicle, significance” value (60 min post SE onset, 0-5 Hz, 1-2 hrs post drug) was “**** (**** P < 0.0001)” and the “Treatment effect on EEG power vs vehicle, significance” value (60 min post SE onset, 0-5 Hz, 2-3 hrs post drug) was “*** (*** P < 0.001)”. For the same molecule, the “Treatment effect on EEG power vs vehicle, significance” value (60 min post SE onset, 0-5 Hz, 3-5 hrs post drug) was “** (** P < 0.01)”, the “Treatment effect on EEG power vs vehicle, significance” value (60 min post SE onset, 0-5 Hz, 15-30 min post drug) was “**** (**** P < 0.0001)” and the “Treatment effect on EEG power vs vehicle, significance” value (60 min post SE onset, 0-5 Hz, 30-60 min post drug) was “**** (**** P < 0.0001)”. The “Treatment effect on EEG power vs vehicle, significance” value (60 min post SE onset, 5-10 Hz, 0-15 min. post drug) was “**** (**** P < 0.0001)”, the “Treatment effect on EEG power vs vehicle, significance” value (60 min post SE onset, 5-10 Hz, 1-2 hrs post drug) was “*** (*** P < 0.001)” and the “Treatment effect on EEG power vs vehicle, significance” value (60 min post SE onset, 5-10 Hz, 2-3 hrs post drug) was “** (** P < 0.01)”. For the same molecule, the “Treatment effect on EEG power vs vehicle, significance” value (60 min post SE onset, 5-10 Hz, 3-5 hrs post drug) was “ns”, the “Treatment effect on EEG power vs vehicle, significance” value (60 min post SE onset, 5-10 Hz, 15-30 min post drug) was “**** (**** P < 0.0001)” and the “Treatment effect on EEG power vs vehicle, significance” value (60 min post SE onset, 5-10 Hz, 30-60 min post drug) was “**** (**** P < 0.0001)”. The “Treatment effect on EEG power vs vehicle, significance” value (60 min post SE onset, 10-30 Hz, 0-15 min. post drug) was “* (* P < 0.05)”, the “Treatment effect on EEG power vs vehicle, significance” value (60 min post SE onset, 10-30 Hz, 1-2 hrs post drug) was “** (** P < 0.01)” and the “Treatment effect on EEG power vs vehicle, significance” value (60 min post SE onset, 10-30 Hz, 2-3 hrs post drug) was “* (* P < 0.05)”.
